Experimental data taken from ChEMBL document CHEMBL1201862, “PubChem BioAssay data set” (2004).

Assays:
Cytochrome P450 2C19 = Cytochrome P450 2C19 (Homo sapiens, UniProt P33261); test: Cytochrome panel assay with activity outcomes. Panel member name: p450-cyp2c19 Compounds with AC50 equal or less than 10 uM are considered active; format: functional
Cytochrome P450 1A2 = biological target: T1, Cytochrome P450 1A2 (Homo sapiens, UniProt P05177);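 note: PubChem cytochrome P450 panel assay, CYP1A2 panel member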
T1 sequence (P05177 whole entry): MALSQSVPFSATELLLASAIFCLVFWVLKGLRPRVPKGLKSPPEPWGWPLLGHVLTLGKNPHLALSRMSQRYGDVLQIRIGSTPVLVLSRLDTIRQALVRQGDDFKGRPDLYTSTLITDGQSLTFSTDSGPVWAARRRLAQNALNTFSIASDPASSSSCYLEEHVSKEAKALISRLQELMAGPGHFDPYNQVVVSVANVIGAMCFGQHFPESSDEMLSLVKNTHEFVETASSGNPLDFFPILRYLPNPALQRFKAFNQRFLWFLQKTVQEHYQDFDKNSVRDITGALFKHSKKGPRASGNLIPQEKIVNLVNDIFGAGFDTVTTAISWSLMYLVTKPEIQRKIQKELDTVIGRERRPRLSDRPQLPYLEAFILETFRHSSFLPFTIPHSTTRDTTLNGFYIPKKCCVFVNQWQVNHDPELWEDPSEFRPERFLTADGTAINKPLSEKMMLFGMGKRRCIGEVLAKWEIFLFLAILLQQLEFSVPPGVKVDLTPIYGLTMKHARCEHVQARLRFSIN

Cytochrome P450 3A4 = Cytochrome P450 3A4 (Homo sapiens, UniProt P08684);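 note: CYP3A4 tested as one member of a cytochrome P450 panel screen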
Cytochrome P450 2C9 = Cytochrome P450 2C9 (Homo sapiens, UniProt P11712)
Sequence of Cytochrome P450 2C9 (P11712 whole entry): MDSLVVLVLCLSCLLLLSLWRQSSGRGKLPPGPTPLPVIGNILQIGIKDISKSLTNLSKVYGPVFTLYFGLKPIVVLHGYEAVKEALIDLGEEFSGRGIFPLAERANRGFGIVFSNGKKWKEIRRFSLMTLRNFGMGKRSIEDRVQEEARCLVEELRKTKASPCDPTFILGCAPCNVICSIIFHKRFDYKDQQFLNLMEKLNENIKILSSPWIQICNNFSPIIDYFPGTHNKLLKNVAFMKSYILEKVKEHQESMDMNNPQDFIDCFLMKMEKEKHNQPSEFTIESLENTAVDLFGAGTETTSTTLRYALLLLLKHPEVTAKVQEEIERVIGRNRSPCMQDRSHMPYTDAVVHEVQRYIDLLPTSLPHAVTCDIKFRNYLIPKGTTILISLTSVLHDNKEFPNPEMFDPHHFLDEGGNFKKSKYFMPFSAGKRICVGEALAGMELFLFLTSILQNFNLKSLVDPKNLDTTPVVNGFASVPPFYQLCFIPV

Sequence of Cytochrome P450 3A4 (P08684 whole entry): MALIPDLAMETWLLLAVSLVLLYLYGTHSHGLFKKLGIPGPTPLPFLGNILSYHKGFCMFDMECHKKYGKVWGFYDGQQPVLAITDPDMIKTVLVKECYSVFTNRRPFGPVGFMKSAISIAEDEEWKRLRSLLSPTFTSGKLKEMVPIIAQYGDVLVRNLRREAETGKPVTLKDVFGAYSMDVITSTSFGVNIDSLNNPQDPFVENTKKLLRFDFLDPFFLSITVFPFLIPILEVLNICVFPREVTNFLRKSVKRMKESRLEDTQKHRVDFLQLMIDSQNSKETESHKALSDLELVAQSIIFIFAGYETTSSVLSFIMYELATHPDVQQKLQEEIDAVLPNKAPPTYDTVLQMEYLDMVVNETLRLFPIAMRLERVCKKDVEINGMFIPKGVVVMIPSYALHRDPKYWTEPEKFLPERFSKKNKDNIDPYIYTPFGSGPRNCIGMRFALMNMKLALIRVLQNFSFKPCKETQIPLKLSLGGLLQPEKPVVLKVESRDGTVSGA
Sequence of Cytochrome P450 2C19 (P33261 whole entry): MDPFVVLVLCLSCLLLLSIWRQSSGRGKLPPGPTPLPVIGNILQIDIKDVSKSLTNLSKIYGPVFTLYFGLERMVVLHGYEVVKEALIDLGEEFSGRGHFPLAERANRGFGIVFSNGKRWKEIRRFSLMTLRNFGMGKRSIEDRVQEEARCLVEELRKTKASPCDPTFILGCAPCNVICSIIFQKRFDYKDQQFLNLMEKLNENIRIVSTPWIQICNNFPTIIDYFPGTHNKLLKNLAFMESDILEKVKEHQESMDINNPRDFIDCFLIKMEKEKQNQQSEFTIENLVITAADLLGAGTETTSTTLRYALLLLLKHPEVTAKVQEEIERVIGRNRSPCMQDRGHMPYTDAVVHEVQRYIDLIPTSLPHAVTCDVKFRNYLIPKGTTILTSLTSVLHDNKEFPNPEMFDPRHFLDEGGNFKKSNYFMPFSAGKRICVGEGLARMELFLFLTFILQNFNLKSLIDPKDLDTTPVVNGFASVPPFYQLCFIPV

Structure (SMILES)	AC50 (Cytochrome P450 1A2)	other results
Cc1cccc(-c2c3c(=O)n(C)c(=O)n(C)c3cn2C2CCCCC2)c1	–	AC50 (Cytochrome P450 2C19): inconclusive
O=S(=O)(c1ccccc1)N1CCC2(CCCN(c3ncccn3)C2)CC1	15.8 µM (inconclusive)	–
CC(C)C[C@H]1C(=O)N2CCC[C@@H]2[C@@]2(O)O[C@](NC(=O)[C@@H]3C=C4c5cccc6[nH]cc(c56)C[C@@H]4N(C)C3)(C(C)C)C(=O)N12	12.6 µM (inconclusive)	–
Cc1ccc(CN(C(=O)c2cc3ccccc3oc2=O)C2CCS(=O)(=O)C2)cc1 (stereo unspecified)	31.6 µM (inconclusive)	AC50 (Cytochrome P450 3A4): 4.47 µM (inconclusive)
O=C(Nc1ccc2ccccc2c1)c1onc2c1CCCC2	–	AC50 (Cytochrome P450 2C19; read-out: AC50): 15.8 µM (inconclusive)
CCCCN1C(=O)/C(=C\c2ccco2)C(=O)N(CCc2ccccc2)C1=O	28.2 µM (inconclusive)	AC50 (Cytochrome P450 3A4): 12.6 µM (inconclusive)
CCc1ccc(C(=O)N2CCC(c3nc4ccccc4s3)CC2)cc1	17.8 µM (inconclusive)	AC50 (Cytochrome P450 3A4): 39.8 µM (inconclusive)
Cc1cc(=O)n2c3ccccc3n(CC(O)CN3CCCCC3)c2c1C#N (stereo unspecified)	15.8 µM (inconclusive)	–
CCC1(O)c2ccccc2-c2ncccc21 (stereo unspecified)	–	AC50 (Cytochrome P450 2C19; read-out: AC50): 39.8 µM (inconclusive)
O=C(Oc1ccccc1)N1CCC[C@@]2(CCN(C(c3ccccc3)c3ccccc3)C2)C1	25.1 µM (inconclusive)	–
Cn1cccc1C(=O)N1CCC2(CCN(Cc3ccccc3)CC2)CC1	–	AC50 (Cytochrome P450 2C19; read-out: AC50): 39.8 µM (inconclusive)
C[C@H]1C2=C3C(CC[C@H]4C(OCc5ccc(F)cc5C(F)(F)F)OC[C@](C)([C@@H]34)N(C(=O)OC(C)(C)C)C2)C2COC(=O)OCC21 (stereo partly specified)	6.31 µM (inconclusive)	–
Cc1cc(C)nc(NN2C(=O)/C(=C/c3ccccc3)SC2=S)n1	–	AC50 (Cytochrome P450 2C19): inconclusive
COC(=O)[C@@]1(Cc2ccc(F)cc2)[C@H]2c3cc(C(=O)N4CCCC4)n(CCc4ccc(OC)c(Br)c4)c3C[C@H]2CN1C(=O)c1ccccc1	15.8 µM (inconclusive)	–
COc1ccc(Nc2cc(=O)n(C3CCCCC3)c(=O)[nH]2)c(OC)c1	31.6 µM (inconclusive)	AC50 (Cytochrome P450 2C9): 25.1 µM (inconclusive)
CN(C)C(=O)c1ccc(-c2ccc3ncnc(NCCN4CCOCC4)c3c2)cc1	25.1 µM (inconclusive)	AC50 (Cytochrome P450 3A4): 15.8 µM (inconclusive)

Structure (SMILES)	AC50 (Cytochrome P450 1A2)	other results
CC(C)(CS)C(=O)N1CCC[C@H]1C(=O)O	–	AC50 (Cytochrome P450 2C19; read-out: AC50): 15.8 µM (inconclusive)
CNCCC=C1c2ccccc2C=Cc2ccccc21	6.31 µM (inconclusive)	AC50 (Cytochrome P450 3A4): 12.6 µM (inconclusive)
COc1ccc(Oc2ncc3nc(-c4ccc(Cl)cc4)c(=O)n(C[C@H]4CCCO4)c3n2)cc1	–	AC50 (Cytochrome P450 2C19; read-out: AC50): 25.1 µM (inconclusive)
COc1cc2c(C(=O)NCc3ccc(C)o3)cn(CC(C)C)c(=O)c2cc1OC	1.58 µM (inconclusive)	AC50 (Cytochrome P450 2C9): 10 µM (inconclusive)
COc1cccc(Nc2ncc3nc(CCc4ccccc4)c(=O)n(Cc4cccs4)c3n2)c1	3.16 µM (inconclusive)	AC50 (Cytochrome P450 3A4): 6.31 µM (inconclusive)
Clc1ccc(C(c2ccc(Cl)cc2)[n+]2ccn(C[C@@H](OCc3ccc(Cl)cc3Cl)c3ccc(Cl)cc3Cl)c2)cc1	–	AC50 (Cytochrome P450 2C19; read-out: AC50): 25.1 µM (inconclusive)
Cc1ccc(-n2ncc(N(C)C)c(Cl)c2=O)cc1	14.1 µM (inconclusive)	AC50 (Cytochrome P450 3A4): 28.2 µM (inconclusive)
Cc1cccc2c(SCC(=O)NCC3CCCO3)nc(-c3ccc(F)cc3)nc12 (stereo unspecified)	0.447 µM (inconclusive)	–
Cc1nnc2ccccc2c1O	0.398 µM (inconclusive)	–
CO/C(O)=C1\C(C)=NC(C)=C([N+](=O)[O-])[C@H]1c1ccccc1C(F)(F)F	31.6 µM (inconclusive)	–
Cc1nnc(S)n1/N=C/c1ccccc1OCc1ccc(Cl)cc1	–	AC50 (Cytochrome P450 2C19; read-out: AC50): 11.2 µM (inconclusive)
CC(C)(C)NC[C@@H](O)COc1ccccc1C1CCCC1	10 µM (inconclusive)	AC50 (Cytochrome P450 2C9): 12.6 µM (inconclusive)
COc1ccc(C(Cl)=C(c2ccc(OC)cc2)c2ccc(OC)cc2)cc1 [CHLOROTRIANISENE]	–	AC50 (Cytochrome P450 2C19; read-out: AC50): 0.1 µM (inconclusive)
CCOc1ccc(Cc2nccc3cc(OCC)c(OCC)cc23)cc1OCC [ETHAVERINE]	10 µM (inconclusive)	–
CN1CCN2c3ncccc3Cc3ccccc3C2C1 (stereo unspecified) [MIRTAZAPINE]	20 µM (inconclusive)	–
